The values that follow come from patent US5236900A, “Anti-fungal agents” (Schering Corporation, priority 1991, dated 1993).

Assay [1] concerns Resistant strains: Candida albicans C79, C6, C8, C31, C54, C70, C104, C138, C140; Candida stellatoidea C45. Kind of assay: Microtiter minimum inhibitory concentration (MIC) test, resistant strains. The settings on record: geometric mean of MICs against resistant strains; YNB pH 5.4, 37° C., 48 hours. Format: cell-based.
Description: (§1) In vitro anti-fungal activity was determined in microtiter minimum inhibitory concentration (MIC) tests using Yeast Nitrogen Broth (YNB without amino acids, Difco., Detroit, Mich.) at pH 5.4. Yeasts were grown overnight in Sabouraud Dextrose Broth at 28° C. with shaking, and concentrations adjusted in sterile saline using a spectrophoptometer at 540 mμ. Compounds were dissolved in various vehicles and diluted in media to twice the final concentrations. The Cetus Pro/Pette system was used to serially dilute 50 μl in round bottom 96 well plates (Falcon, Lincoln Park, N.J.). The turbidometrically adjusted yeast suspensions were diluted 1:3,000 in YNB. These dilutions when added to the wells, produced a final inoculum of 3×10^3 /ml. Plates were incubated at 37° C. for 48 hours. MICs were defined as the lowest concentrations of compound that prevented visible growth. MICs were taken against the following organisms and expressed in the table above as the geometric mean.
The test system of assay [2] is Sensitive strains: Candida albicans C141, Candida sp. C2, Candida sp. C109, Candida parapsilosis C67, Candida tropicalis C112, Torulopsis glabrata C95, Candida …. The assay is described as follows: Microtiter minimum inhibitory concentration (MIC) test, sensitive strains. Conditions: geometric mean of MICs against sensitive strains; YNB pH 5.4, 37° C., 48 hours. The assay is classed as cell-based, Candida spp., Sacchararomyces.
Description: as §1
Candida pseudotropicalis C 967
Candida guillermondii C137
Sacchararomyces mutant C147

In turn, “6'-Dodecylamido-5-N-L-Valinyl-UPOC [Compound 3]” came in with an MIC-R in assay [1] of 17 µg/mL. In assay [2], this substance came in with an MIC-S of 26 µg/mL.
